According to patent US8877754B2, “Compounds, pharmaceutical compositions and uses thereof” (Boehringer Ingelheim International GmbH, priority 2010, dated 2014):
pIC50: −log10 of the molar value.

Target: T1, human ACC2 (Homo sapiens, UniProt O00763)
T1 construct: made in house; host or cells: insect cells, baculoviral expression system
Assay: ACC2 assay, spectrophotometric 384 well assay (NADH-linked, coupled lactate dehydrogenase/pyruvate kinase)
Type: biochemical
Conditions: hACC2 construct lacking the 128 N-terminal amino acids; 25° C., 340 nm, 15 minutes
Protocol: Spectrophotometric 384 Well Assay
Malonyl CoA formation by acetyl CoA carboxylases is stoichometrically linked to the consumption of ATP. ACC2 activity is measured in a NADH-linked kinetic method measuring ADP generated during the ACC reaction using a coupled lactate dehydrogenase/pyruvate kinase reaction.
For biological testing, a human ACC2 construct which lacks the 128 amino acids at the N-terminus for increased solubility (nt 385-6966 in Genbank entry AJ575592) is cloned. The protein is then expressed in insect cells using a baculoviral expression system. Protein purification is performed by anion exchange.
All compounds are dissolved in dimethyl sulfoxide (DMSO) to a concentration of 10 mM.
Assay reactions are then carried out in 384-well plates, with hACC2 in an appropriate dilution and at final assay concentrations (f.c.) of 100 mM Tris (pH 7.5), 10 mM trisodium citrate, 25 mM KHCO3, 10 mM MgCl2, 0.5 mg/mL BSA, 3.75 mM reduced L-glutathione, 15 U/mL lactate dehydrogenase, 0.5 mM phosphoenolpyruvate, 15 U/mL pyruvate kinase, compounds at different concentrations at final DMSO concentrations of 1%.
The enzymatic reaction is then started by addition of a mixture of NADH, acetyl Coenzyme A (both 200 μM f.c.) and ATP (500 uM f.c.). The decrease of the optical density (slope S) is then determined at 25° C. at a wavelength of 340 nm over 15 minutes in a spectrophotometric reader.
Each assay microtiter plate contains wells with vehicle instead of compound as controls for the non-inhibited enzyme (100% CTL; ‘HIGH’) and wells without acetyl-CoA as controls for non-specific NADH degradation (0% CTL; ‘LOW’). The slope S is used for calculation of % CTL=(S(compound)−S(‘LOW’))/(S(‘HIGH’)—S(‘LOW’))*100. Compounds will give values between 100% CTL (no inhibition) and 0% CTL (complete inhibition).
For IC50 value determination, the sample slope in the presence of the test compound after subtraction of the low controls (S(compound)−S(‘LOW’)) are used.
An IC50 value is derived from the compound slopes at different dosages after subtraction of the low controls (S(compound)−S(‘LOW’)) by non-linear regression curve fitting (equation y=(A+((B−A)/(1+((C/x)^D))))).

T1 sequence (O00763 129-2458 limits assumed): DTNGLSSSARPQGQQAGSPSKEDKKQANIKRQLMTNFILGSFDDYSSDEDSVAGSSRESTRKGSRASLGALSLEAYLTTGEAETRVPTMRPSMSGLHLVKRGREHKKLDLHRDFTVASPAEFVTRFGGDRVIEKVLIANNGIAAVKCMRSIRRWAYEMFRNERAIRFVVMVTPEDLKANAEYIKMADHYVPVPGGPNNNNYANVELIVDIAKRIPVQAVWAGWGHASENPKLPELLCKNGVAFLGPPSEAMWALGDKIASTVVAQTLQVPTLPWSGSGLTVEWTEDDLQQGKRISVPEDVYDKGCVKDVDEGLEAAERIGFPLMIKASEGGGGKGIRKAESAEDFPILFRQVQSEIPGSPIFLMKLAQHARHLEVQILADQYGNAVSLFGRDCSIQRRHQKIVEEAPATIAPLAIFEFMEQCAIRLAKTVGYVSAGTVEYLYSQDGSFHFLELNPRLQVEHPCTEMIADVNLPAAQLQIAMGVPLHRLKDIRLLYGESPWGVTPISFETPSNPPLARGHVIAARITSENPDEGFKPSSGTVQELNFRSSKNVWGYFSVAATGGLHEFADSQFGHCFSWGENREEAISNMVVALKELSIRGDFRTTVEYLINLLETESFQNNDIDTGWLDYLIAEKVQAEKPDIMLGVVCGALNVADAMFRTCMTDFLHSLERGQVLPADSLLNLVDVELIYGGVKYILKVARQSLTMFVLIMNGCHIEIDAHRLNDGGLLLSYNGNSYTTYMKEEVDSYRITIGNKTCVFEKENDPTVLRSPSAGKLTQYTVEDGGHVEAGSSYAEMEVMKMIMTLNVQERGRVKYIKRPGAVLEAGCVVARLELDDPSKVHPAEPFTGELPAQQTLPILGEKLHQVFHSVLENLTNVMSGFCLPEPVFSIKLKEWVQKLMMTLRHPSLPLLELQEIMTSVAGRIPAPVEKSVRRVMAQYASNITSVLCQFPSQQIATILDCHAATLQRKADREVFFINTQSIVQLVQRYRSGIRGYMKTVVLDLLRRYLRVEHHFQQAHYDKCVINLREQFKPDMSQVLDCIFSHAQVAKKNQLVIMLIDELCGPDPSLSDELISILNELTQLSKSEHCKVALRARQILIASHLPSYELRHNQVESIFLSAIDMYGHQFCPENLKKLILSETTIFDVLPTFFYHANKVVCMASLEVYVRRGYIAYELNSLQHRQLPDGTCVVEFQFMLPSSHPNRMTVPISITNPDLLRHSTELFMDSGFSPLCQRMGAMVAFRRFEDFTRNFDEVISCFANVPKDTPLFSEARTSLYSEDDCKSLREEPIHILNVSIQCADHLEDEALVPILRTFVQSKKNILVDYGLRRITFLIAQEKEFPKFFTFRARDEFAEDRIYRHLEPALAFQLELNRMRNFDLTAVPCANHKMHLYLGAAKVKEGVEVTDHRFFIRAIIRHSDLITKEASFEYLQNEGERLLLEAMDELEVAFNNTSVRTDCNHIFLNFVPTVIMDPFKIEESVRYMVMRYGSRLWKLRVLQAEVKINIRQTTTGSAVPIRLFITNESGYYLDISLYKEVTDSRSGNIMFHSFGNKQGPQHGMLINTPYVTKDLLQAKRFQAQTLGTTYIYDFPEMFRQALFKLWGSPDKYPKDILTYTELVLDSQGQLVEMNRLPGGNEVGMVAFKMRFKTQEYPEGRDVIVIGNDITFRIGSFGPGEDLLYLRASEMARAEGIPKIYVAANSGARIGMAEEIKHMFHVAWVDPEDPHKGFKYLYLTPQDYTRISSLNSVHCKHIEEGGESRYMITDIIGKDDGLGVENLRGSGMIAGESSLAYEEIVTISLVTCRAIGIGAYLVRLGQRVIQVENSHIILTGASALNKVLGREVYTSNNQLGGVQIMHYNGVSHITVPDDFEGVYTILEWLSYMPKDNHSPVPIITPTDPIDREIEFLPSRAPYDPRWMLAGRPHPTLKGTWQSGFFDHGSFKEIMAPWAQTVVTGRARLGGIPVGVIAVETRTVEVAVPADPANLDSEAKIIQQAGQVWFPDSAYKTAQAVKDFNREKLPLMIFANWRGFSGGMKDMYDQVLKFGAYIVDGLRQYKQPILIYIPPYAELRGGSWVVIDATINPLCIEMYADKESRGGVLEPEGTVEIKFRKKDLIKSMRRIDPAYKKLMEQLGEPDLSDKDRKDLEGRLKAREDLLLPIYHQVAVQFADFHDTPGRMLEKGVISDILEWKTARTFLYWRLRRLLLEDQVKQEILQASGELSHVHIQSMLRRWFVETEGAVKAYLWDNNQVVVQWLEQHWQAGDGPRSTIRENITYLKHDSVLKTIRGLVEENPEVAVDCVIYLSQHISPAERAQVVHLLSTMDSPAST

Row | SMILES | pIC50
1 | CCCOc1cc(C#Cc2ccc(C(C)C(=O)NCC)cc2)ccn1 (stereo not drawn) [Example 7.10] | 6.57
2 | CCOc1ccc(C#Cc2ccc(C(C)C(=O)NC(C)C)cc2)cc1 (stereo not drawn) [Example 1.20] | 4.88
3 | CCNC(=O)C(C)c1ccc(C#Cc2ccc(OC3CCCOC3)cc2)cc1 (stereo not drawn) [Example 5.11] | 6.06
4 | CCNC(=O)C(C)c1ccc(C#Cc2ccc3c(c2)C(=O)CC3)cc1 (stereo not drawn) [Example 7.18] | 5.66
5 | CCNC(=O)C(C)c1ccc(C#Cc2cnc(NC(C)C)nc2)cc1 (stereo not drawn) [Example 2.1, N-Ethyl-2-[4-(2-isopropylamino-pyrimidin-5-ylethynyl)-phenyl]-propionamide] | 6.16
6 | CCCCOc1cc(C#Cc2ccc(C(C)C(=O)NCC)cc2)ccn1 (stereo not drawn) [Example 7.43] | 6.77
7 | CCCOc1ccc(C#Cc2ccc(C(C)C(=O)NCC)cc2)c(Cl)c1 (stereo not drawn) [Example 7.40] | 6.85
8 | CCOc1ccc(C#Cc2ccc(C(C)C(=O)Nc3ccnn3C)cc2)cc1 (stereo not drawn) [Example 6.10] | 6.72
9 | CCNC(=O)C(C)c1ccc(C#Cc2ccc(OC(F)F)cc2)cc1 (stereo not drawn) [Example 7.6] | 5.37
10 | CCOc1ccc(C#Cc2ccc(CC(C)C(=O)NC)cc2)cc1 (stereo not drawn) [Example 1.24] | 5.57
11 | CCNC(=O)C(C)c1ccc(C#Cc2cnc(N3CCC3)nc2)cc1 (stereo not drawn) [Example 2.7] | 5.43
12 | CCOc1ccc(C#Cc2ccc(C(C)C(=O)NCC(N)=O)cc2)cc1 (stereo not drawn) [Example 1.10] | 6.28
13 | CCNC(=O)C(C)c1ccc(C#Cc2ccc(OCC3CCOC3)cc2)cc1 (stereo not drawn) [Example 5.6] | 6.64
14 | CCNC(=O)C(C)c1ccc(C#Cc2ccc3[nH]nnc3c2)cc1 (stereo not drawn) [Example 7.19] | 5.11
15 | CCOc1ccc(C#Cc2ccc(C(C)C(=O)NC)cc2)cc1 (stereo not drawn) [Example 1.3] | 6.66
16 | CCNC(=O)C(C)c1ccc(C#Cc2ccc(OCc3cncs3)cc2)cc1 (stereo not drawn) [Example 5.10] | 5.43
17 | CCNC(=O)C(C)c1ccc(C#Cc2ccc(OC3CCCC3)nc2)cc1 (stereo not drawn) [Example 7.30] | 6.66
18 | CCNC(=O)C(C)c1ccc(C#Cc2ccc(OC)c(OC)c2)cc1 (stereo not drawn) [Example 7.48] | 4.59

Row | SMILES | pIC50
19 | CCNC(=O)C(C)c1ccc(C#Cc2cnn(-c3ccccc3)c2)cc1 (stereo not drawn) [Example 7.32] | 6.36
20 | CCNC(=O)C(C)c1ccc(C#Cc2ccc(CNc3ccccn3)cc2)cc1 (stereo not drawn) [Example 7.16] | 5.82
21 | CCNC(=O)C(C)c1ccc(C#Cc2cnc(NC3CCC3)nc2)cc1 (stereo not drawn) [Example 2.12] | 6.16
22 | CCNC(=O)C(C)c1ccc(C#Cc2ccc(OCCc3cn[nH]c3)cc2)cc1 (stereo not drawn) [Example 5.17] | 6.03
23 | CCOc1ccc(C#Cc2ccc(C(C)C(=O)N(C)C)cc2)cc1 (stereo not drawn) [Example 1.4] | 4.79
24 | CCNC(=O)C(C)c1ccc(C#Cc2ccc(OCCn3ccnc3)cc2)cc1 (stereo not drawn) [Example 5.18] | 5.72
25 | CCOc1ccc(C#Cc2ccc(C(C)C(=O)NCc3ccn(C)n3)cc2)cc1 (stereo not drawn) [Example 6.22] | 5.82
26 | CCNC(=O)C(C)c1ccc(C#Cc2cnc(N3CCCCC3)nc2)cc1 (stereo not drawn) [Example 2.15] | 5.82
27 | CCNC(=O)C(C)c1ccc(C#Cc2ccc(OC(C)(C)C)cc2)cc1 (stereo not drawn) [Example 7.17] | 6.44
28 | CCNC(=O)C(C)c1ccc(C#Cc2ccc(OCC3CC3)cc2)cc1 (stereo not drawn) [Example 7.4] | 6.82
29 | CCOc1ccc(C#Cc2ccc(C(C)C(=O)Nc3ccnnc3)cc2)cc1 (stereo not drawn) [Example 6.12] | 6.89
30 | CCOc1ccc(C#Cc2ccc(C(C)C(=O)NCc3ncn[nH]3)cc2)cc1 (stereo not drawn) [Example 6.19] | 5.35
31 | CCNC(=O)C(C)c1ccc(C#Cc2ccc(SC)cc2)cc1 (stereo not drawn) [Example 7.7] | 6.60
32 | CCOc1ccc(C#Cc2ccc(C(C)C(=O)Nc3cccnc3)cc2)cc1 (stereo not drawn) [Example 6.14] | 6.62
33 | CCOc1ccc(C#Cc2ccc(C(C)C(=O)NCC(=O)OC)cc2)cc1 (stereo not drawn) [Example 1.18] | 5.89
34 | CCNC(=O)C(C)c1ccc(C#Cc2ccc3c(c2)OCC3)cc1 (stereo not drawn) [Example 7.20] | 6.30
35 | CCCOc1ccc(C#Cc2ccc(C(C)C(=O)NCC)cc2)c(C#N)c1 (stereo not drawn) [Example 7.39] | 5.92

The remaining compounds from weak to strong by pIC50, led by results:

Row | pIC50 | SMILES
36 | 4.53 | CCCOc1ccc(C#Cc2ccc(C(C)(C)C(N)=O)cc2)cc1 [Example 1.19]
37 | 4.59 | CCOc1ccc(C#Cc2ccc(C(C)C(=O)Nc3cc(C)[nH]n3)cc2)cc1 (stereo not drawn) [Example 6.21]
38 | 4.59 | CCNC(=O)C(C)c1ccc(C#Cc2ccc(CNC(C)=O)cc2)cc1 (stereo not drawn) [Example 7.26]
39 | 4.64 | CCOc1ccc(C#Cc2ccc(C(C)C(=O)Nc3nncs3)cc2)cc1 (stereo not drawn) [Example 6.23]
40 | 4.73 | CCOc1ccc(C#Cc2ccc(C(C)C(=O)NCc3ccno3)cc2)cc1 (stereo not drawn) [Example 6.18]
41 | 4.73 | CCOc1ccc(C#Cc2ccc(C(C)C(=O)NC(C)(C)C#N)cc2)cc1 (stereo not drawn) [Example 6.26]
42 | 5.13 | CCNC(=O)C(C)c1ccc(C#Cc2cnc(NCc3ccncc3)nc2)cc1 (stereo not drawn) [Example 2.16]
43 | 5.42 | CCNC(=O)C(C)c1ccc(C#Cc2ccc(OC(C)C)nn2)cc1 (stereo not drawn) [Example 7.36]
44 | 5.44 | CCOc1ccc(C#Cc2ccc(C(C)C(=O)Nc3ccn[nH]3)cc2)cc1 (stereo not drawn) [Example 6.6]
45 | 5.57 | CCNC(=O)C(C)c1ccc(C#Cc2ccc(OCC3(C)COC3)cc2)cc1 (stereo not drawn) [Example 5.15]
46 | 5.60 | CCNC(=O)C(C)c1ccc(C#Cc2cnc(NCCF)nc2)cc1 (stereo not drawn) [Example 2.9]
47 | 5.64 | CCNC(=O)C(C)c1ccc(C#Cc2cnc(N3CCC4(CC4)C3)nc2)cc1 (stereo not drawn) [Example 2.10]
48 | 5.68 | CCCCn1ccc(C#Cc2ccc(C(C)C(=O)NCC)cc2)cc1=O (stereo not drawn) [Example 7.35]
49 | 5.70 | CCNC(=O)C(C)c1ccc(C#Cc2cc(OCC)ncn2)cc1 (stereo not drawn) [Example 7.13]
50 | 5.82 | CCNC(=O)C(C)c1ccc(C#Cc2ccc(OC(C)c3ccncc3)cc2)cc1 (stereo not drawn) [Example 5.8]
51 | 5.85 | CCNC(=O)C(C)c1ccc(C#Cc2ccc(OC(CC)COC)cc2)cc1 (stereo not drawn) [Example 5.16]
52 | 5.89 | CCNC(=O)C(C)c1ccc(C#Cc2ccc(C(C)C)cc2)cc1 (stereo not drawn) [Example 7.1, N-Ethyl-2-[4-(4-isopropyl-phenylethynyl)-phenyl]-propionamide]
53 | 6.05 | CCNC(=O)C(C)c1ccc(C#Cc2ccc(OCC3CCOCC3)cc2)cc1 (stereo not drawn) [Example 5.13]
54 | 6.14 | CCOc1ccc(C#Cc2ccc(CC(C)C(=O)NC3CC3)cc2)cc1 (stereo not drawn) [Example 1.25]

Row | pIC50 | SMILES
55 | 6.19 | CCNC(=O)C(C)c1ccc(C#Cc2cc(OCc3ccccc3)ncn2)cc1 (stereo not drawn) [Example 7.31]
56 | 6.27 | CCNC(=O)C(C)c1ccc(C#Cc2ccc(OCc3cnco3)cc2)cc1 (stereo not drawn) [Example 5.21]
57 | 6.28 | CCOc1ccc(C#Cc2ccc(C(C)C(=O)Nc3ccncn3)cc2)cc1 (stereo not drawn) [Example 6.2]
58 | 6.29 | CCCOc1ccc(C#Cc2ccc(C(C)C(=O)NCC)cc2)c(OC)c1 (stereo not drawn) [Example 7.41]
59 | 6.39 | CCOc1ccc(C#Cc2ccc(C(C)C(=O)Nc3cccc(OC)n3)cc2)cc1 (stereo not drawn) [Example 6.4]
60 | 6.40 | CCOc1ccc(C#Cc2ccc(C(C)C(=O)Nc3ccncc3)cc2)cc1 (stereo not drawn) [Example 6.13]
61 | 6.48 | CCCc1ccc(C#Cc2ccc(C(C)C(=O)NCC)cc2)cc1 (stereo not drawn) [Example 7.22]
62 | 6.54 | CCOc1ccc(C#Cc2ccc(C(C)C(=O)Nc3ncccn3)cc2)cc1 (stereo not drawn) [Example 6.15]
63 | 6.59 | CCNC(=O)C(C)c1ccc(C#Cc2ccc(OC(C)C)cc2)cc1 (stereo not drawn) [Example 7.24]
64 | 6.59 | CCNC(=O)C(C)c1ccc(C#Cc2ccc(OC)cc2)cc1 (stereo not drawn) [Example 4.1, N-Ethyl-2-[4-(4-methoxy-phenylethynyl)-phenyl]-propionamide]
65 | 6.60 | CCNC(=O)C(C)c1ccc(C#Cc2ccnc(OCC)c2)cc1 (stereo not drawn) [Example 7.9]
66 | 6.60 | CCNC(=O)C(C)c1ccc(C#Cc2ccnc(OC(C)C)c2)cc1 (stereo not drawn) [Example 7.44]
67 | 6.62 | CCNC(=O)C(C)c1ccc(C#Cc2cnc(NCc3ccccc3)nc2)cc1 (stereo not drawn) [Example 2.13]
68 | 6.70 | CCNC(=O)C(C)c1ccc(C#Cc2ccc(OCCC3CC3)cc2)cc1 (stereo not drawn) [Example 5.5]
69 | 7.00 | CCOc1ccc(C#Cc2ccc(C(C)C(=O)Nc3cc(C)on3)cc2)cc1 (stereo not drawn) [Example 6.16]
70 | 7.10 | CCOc1ccc(C#Cc2ccc(C(C)C(=O)Nc3ccccc3)cc2)cc1 (stereo not drawn) [Example 1.15]
71 | 7.22 | CCOc1ccc(C#Cc2ccc(C(C)C(=O)Nc3cncnc3)cc2)cc1 (stereo not drawn) [Example 6.5]
72 | 7.22 | CCNC(=O)C(C)c1ccc(C#Cc2ccc(OC3CC3)cc2)cc1 (stereo not drawn) [Example 7.49]
